Among the data in patent publication US10208089B2, “Modulation of complement activity” (priority 2014, dated 2019) are IC50 values, retold here.

A word on the IC50: it is the concentration that inhibits the measured activity by half.

Starred links: 1 amine or outer side, 2 acyl side, 3 side chain; linkers in the order of their positions; H or OH if unused. Positions of bridges follow the written chain, without caps; N, C: chain ends. Non-standard residues stand in square brackets, D forms with d. Residues, ends and D or L forms follow the SMILES beside them. Trp(7-aza) = N[C@@H](Cc1c[nH]c2ncccc12)C(=O)O; mXylylene = c1cc(C[*:1])cc(C[*:2])c1; Phg = N[C@H](C(=O)O)c1ccccc1; Tle = CC(C)(C)[C@H](N)C(=O)O; NMeS = CN[C@@H](CO)C(=O)O; NMeA = CN[C@@H](C)C(=O)O; Nva = CCC[C@H](N)C(=O)O

This experiment has as its target C5 (Homo sapiens, UniProt P01031). Kind of experiment: Human hemolysis assay (RBC lysis assay using complete human sera). The experiment is classed as cell-based. Set-up: with complete human sera (Complement Technology, Tyler Tex.) and polypeptides; tissue Complement Technology, Tyler Tex; host or cells: complete human serum.
Setting [1] is: inhibition of lysis of antibody-sensitized sheep erythrocytes, complete human sera.
Setting [2] is: C-terminally truncated polypeptide variants of R3021, inhibition of red blood cell lysis.

Sequence of C5 (P01031 19-1676): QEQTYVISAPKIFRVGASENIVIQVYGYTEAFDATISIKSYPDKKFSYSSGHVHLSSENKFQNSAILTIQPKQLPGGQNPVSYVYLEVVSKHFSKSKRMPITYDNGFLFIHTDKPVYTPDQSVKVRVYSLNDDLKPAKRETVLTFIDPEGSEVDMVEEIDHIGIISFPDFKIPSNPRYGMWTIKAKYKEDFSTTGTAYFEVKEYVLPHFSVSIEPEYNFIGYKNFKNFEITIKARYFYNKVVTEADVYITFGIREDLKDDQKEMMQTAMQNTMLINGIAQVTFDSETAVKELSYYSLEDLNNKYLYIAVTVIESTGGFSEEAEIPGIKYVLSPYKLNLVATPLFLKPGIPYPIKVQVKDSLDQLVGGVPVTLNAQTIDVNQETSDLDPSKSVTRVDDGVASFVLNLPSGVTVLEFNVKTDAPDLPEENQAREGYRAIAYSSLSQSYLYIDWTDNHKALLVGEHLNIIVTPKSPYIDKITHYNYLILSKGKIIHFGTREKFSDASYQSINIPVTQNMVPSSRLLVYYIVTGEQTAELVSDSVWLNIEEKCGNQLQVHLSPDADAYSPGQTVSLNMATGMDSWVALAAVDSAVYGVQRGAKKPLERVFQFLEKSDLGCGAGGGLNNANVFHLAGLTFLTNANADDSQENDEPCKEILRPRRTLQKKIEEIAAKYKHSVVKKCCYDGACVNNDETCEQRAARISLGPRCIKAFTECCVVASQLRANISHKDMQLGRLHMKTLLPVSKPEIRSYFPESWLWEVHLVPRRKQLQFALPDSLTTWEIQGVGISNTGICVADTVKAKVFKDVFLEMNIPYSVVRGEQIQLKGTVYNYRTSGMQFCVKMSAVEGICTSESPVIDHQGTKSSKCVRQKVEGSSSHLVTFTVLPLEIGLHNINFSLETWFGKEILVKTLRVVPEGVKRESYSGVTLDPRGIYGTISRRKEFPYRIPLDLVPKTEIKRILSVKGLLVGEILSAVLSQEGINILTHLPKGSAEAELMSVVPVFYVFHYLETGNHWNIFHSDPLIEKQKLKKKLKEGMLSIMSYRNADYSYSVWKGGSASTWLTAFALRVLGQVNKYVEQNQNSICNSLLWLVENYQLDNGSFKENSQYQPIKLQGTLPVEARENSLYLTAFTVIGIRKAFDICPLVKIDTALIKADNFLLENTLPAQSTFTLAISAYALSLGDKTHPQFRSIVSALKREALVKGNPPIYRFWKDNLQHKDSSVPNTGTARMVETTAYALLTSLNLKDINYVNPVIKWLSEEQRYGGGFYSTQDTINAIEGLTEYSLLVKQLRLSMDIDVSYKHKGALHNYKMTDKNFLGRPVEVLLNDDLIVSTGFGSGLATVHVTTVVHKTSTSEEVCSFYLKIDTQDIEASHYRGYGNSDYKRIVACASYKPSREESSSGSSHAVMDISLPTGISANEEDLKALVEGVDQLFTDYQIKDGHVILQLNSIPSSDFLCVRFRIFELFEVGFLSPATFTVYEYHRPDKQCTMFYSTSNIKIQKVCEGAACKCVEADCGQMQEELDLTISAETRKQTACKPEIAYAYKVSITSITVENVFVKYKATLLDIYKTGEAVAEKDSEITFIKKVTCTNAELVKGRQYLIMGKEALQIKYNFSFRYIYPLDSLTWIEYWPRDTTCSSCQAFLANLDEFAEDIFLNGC

As to `CCC[C@H](NC(=O)[C@@H]1CCCN1C(=O)[C@H](CCC)NC(=O)[C@H](CS)NC(=O)[C@H](Cc1c[nH]cn1)NC(=O)[C@H](CO)N(C)C(=O)[C@H](Cc1ccc(O)cc1)NC(=O)[C@H](CCC(=O)O)NC(=O)[C@H](Cc1c[nH]c2ncccc12)NC(=O)[C@@H](NC(=O)[C@@H](NC(=O)[C@H](CS)NC(=O)[C@H](CCC)NC(C)=O)c1ccccc1)[C@@H](C)O)C(N)=O` [Compound R3022, Ac-Nvl-C-Phg-T-azaTrp-E-Y-(N-Me)S-H-C-Nvl-P-Nvl-NH2] (Ac-[Nva]C[Phg]T[Trp(7-aza)]EY[NMeS]HC[Nva]P[Nva]-NH2), the IC50 under setting [1] is above 10.2 µM.
Still for that read-out and setting: for `CCC[C@H](NC(=O)[C@@H](NC(=O)[C@@H]1CCCN1C(=O)[C@H](Cc1ccc(O)cc1)NC(=O)[C@H](CCC(=O)O)NC(=O)[C@H](Cc1c[nH]c2ncccc12)NC(=O)[C@H](Cc1ccc(O)cc1)NC(=O)[C@@H](NC(C)=O)C(C)(C)C)c1ccccc1)C(N)=O` [Compound R3028, Ac-Tbg-Y-azaTrp-E-Y-P-Phg-Nvl-NH2] (Ac-[Tle]Y[Trp(7-aza)]EYP[Phg][Nva]-NH2) the value was above 10 µM; for `CCC[C@H](NC(=O)[C@@H]1CSCc2cccc(c2)CSC[C@H](NC(=O)[C@H](C)NC(C)=O)C(=O)N[C@@H](c2ccccc2)C(=O)N[C@@H]([C@@H](C)O)C(=O)N[C@@H](Cc2c[nH]c3ncccc23)C(=O)N[C@@H](CCC(=O)O)C(=O)N[C@@H](Cc2ccc(O)cc2)C(=O)N(C)[C@@H](CO)C(=O)N[C@@H](Cc2c[nH]cn2)C(=O)N1)C(N)=O` [Compound R3031, [mXylyl(2,10)]Ac-A-C-Phg-T-azaTrp-E-Y-(N-Me)S-H-C-Nvl-NH2] (Ac-AC[Phg]T[Trp(7-aza)]EY[NMeS]HC[Nva]-NH2; linker 2-10 via mXylylene), 1.09 µM; for `CCC[C@H](NC(=O)[C@@H]1CSCc2cccc(c2)CSC[C@H](NC(=O)[C@H](CCC)NC(C)=O)C(=O)N[C@@H](C)C(=O)N[C@@H]([C@@H](C)O)C(=O)N[C@@H](Cc2c[nH]c3ncccc23)C(=O)N[C@@H](CCC(=O)O)C(=O)N[C@@H](Cc2ccc(O)cc2)C(=O)N(C)[C@@H](CO)C(=O)N[C@@H](Cc2c[nH]cn2)C(=O)N1)C(N)=O` [Compound R3032, [mXylyl(2,10)]Ac-Nvl-C-A-T-azaTrp-E-Y-(N-Me)S-H-C-Nvl-NH2] (Ac-[Nva]CAT[Trp(7-aza)]EY[NMeS]HC[Nva]-NH2; linker 2-10 via mXylylene), above 10 µM.
For the molecule `CCC[C@H](NC(=O)[C@@H]1CSCc2cccc(c2)CSC[C@H](NC(=O)[C@H](CCC)NC(C)=O)C(=O)N[C@@H](c2ccccc2)C(=O)N[C@@H](C)C(=O)N[C@@H](Cc2c[nH]c3ncccc23)C(=O)N[C@@H](CCC(=O)O)C(=O)N[C@@H](Cc2ccc(O)cc2)C(=O)N(C)[C@@H](CO)C(=O)N[C@@H](Cc2c[nH]cn2)C(=O)N1)C(N)=O` [Compound R3033, [mXylyl(2,10)]Ac-Nvl-C-Phg-A-azaTrp-E-Y-(N-Me)S-H-C-Nvl-NH2] (Ac-[Nva]C[Phg]A[Trp(7-aza)]EY[NMeS]HC[Nva]-NH2; linker 2-10 via mXylylene), the IC50 under setting [1] turned out to be 0.131 µM.
As to `CCC[C@H](NC(=O)[C@@H]1CSCc2cccc(c2)CSC[C@H](NC(=O)[C@H](CCC)NC(C)=O)C(=O)N[C@@H](c2ccccc2)C(=O)N[C@@H]([C@@H](C)O)C(=O)N[C@@H](C)C(=O)N[C@@H](CCC(=O)O)C(=O)N[C@@H](Cc2ccc(O)cc2)C(=O)N(C)[C@@H](CO)C(=O)N[C@@H](Cc2c[nH]cn2)C(=O)N1)C(N)=O` [Compound R3034, [mXylyl(2,10)]Ac-Nvl-C-Phg-T-A-E-Y-(N-Me)S-H-C-Nvl-NH2] (Ac-[Nva]C[Phg]TAEY[NMeS]HC[Nva]-NH2; linker 2-10 via mXylylene), the 50% inhibitory concentration (IC50) reads like this: (7-azatryptophan variant polypeptides of R3008, inhibition of red blood cell lysis) above 50 µM; under setting [1], above 50 µM.
With `CCC[C@H](NC(=O)[C@@H]1CSCc2cccc(c2)CSC[C@H](NC(=O)[C@H](CCC)NC(C)=O)C(=O)N[C@@H](c2ccccc2)C(=O)N[C@@H]([C@@H](C)O)C(=O)N[C@@H](Cc2c[nH]c3ncccc23)C(=O)N[C@@H](C)C(=O)N[C@@H](Cc2ccc(O)cc2)C(=O)N(C)[C@@H](CO)C(=O)N[C@@H](Cc2c[nH]cn2)C(=O)N1)C(N)=O` [Compound R3035, [mXylv1(2,10)]Ac-Nvl-C-Phg-T-azaTrp-A-Y-(N-Me)S-H-C-Nvl-NH2] (Ac-[Nva]C[Phg]T[Trp(7-aza)]AY[NMeS]HC[Nva]-NH2; linker 2-10 via mXylylene), the IC50 under setting [1] is above 50 µM.
As for `CCC[C@H](NC(=O)[C@@H]1CSCc2cccc(c2)CSC[C@H](NC(=O)[C@H](CCC)NC(C)=O)C(=O)N[C@@H](c2ccccc2)C(=O)N[C@@H]([C@@H](C)O)C(=O)N[C@@H](Cc2c[nH]c3ncccc23)C(=O)N[C@@H](CCC(=O)O)C(=O)N[C@@H](C)C(=O)N(C)[C@@H](CO)C(=O)N[C@@H](Cc2c[nH]cn2)C(=O)N1)C(N)=O` [Compound R3036, [mXylyl(2,10)]Ac-Nvl-C-Phg-T-azaTrp-E-A-(N-Me)S-H-C-Nvl-NH2] (Ac-[Nva]C[Phg]T[Trp(7-aza)]EA[NMeS]HC[Nva]-NH2; linker 2-10 via mXylylene), the IC50 under setting [1] is above 50 µM.
Consider `CCC[C@H](NC(=O)[C@@H]1CSCc2cccc(c2)CSC[C@H](NC(=O)[C@H](CCC)NC(C)=O)C(=O)N[C@@H](c2ccccc2)C(=O)N[C@@H]([C@@H](C)O)C(=O)N[C@@H](Cc2c[nH]c3ncccc23)C(=O)N[C@@H](CCC(=O)O)C(=O)N[C@@H](Cc2ccc(O)cc2)C(=O)N(C)[C@@H](C)C(=O)N[C@@H](Cc2c[nH]cn2)C(=O)N1)C(N)=O` [Compound R3037, [mXylyl(2,10)]Ac-Nvl-C-Phg-T-azaTrp-E-Y-(N-Me)A-H-C-Nvl-NH2] (Ac-[Nva]C[Phg]T[Trp(7-aza)]EY[NMeA]HC[Nva]-NH2; linker 2-10 via mXylylene), for which, under setting [1], the IC50 is 0.276 µM.
In the case of `CCC[C@H](NC(=O)[C@@H]1CSCc2cccc(c2)CSC[C@H](NC(=O)[C@H](CCC)NC(C)=O)C(=O)N[C@@H](c2ccccc2)C(=O)N[C@@H]([C@@H](C)O)C(=O)N[C@@H](Cc2c[nH]c3ncccc23)C(=O)N[C@@H](CCC(=O)O)C(=O)N[C@@H](Cc2ccc(O)cc2)C(=O)N(C)[C@@H](CO)C(=O)N[C@@H](C)C(=O)N1)C(N)=O` [Compound R3038, [mXylyl(2,10)]Ac-Nvl-C-Phg-T-azaTrp-E-Y-(N-Me)S-A-C-Nvl-NH2] (Ac-[Nva]C[Phg]T[Trp(7-aza)]EY[NMeS]AC[Nva]-NH2; linker 2-10 via mXylylene), under setting [1], the IC50 turned out to be 0.14 µM.
Regarding `CCC[C@H](NC(C)=O)C(=O)N[C@H]1CSCc2cccc(c2)CSC[C@@H](C(=O)N[C@@H](C)C(N)=O)NC(=O)[C@H](Cc2c[nH]cn2)NC(=O)[C@H](CO)N(C)C(=O)[C@H](Cc2ccc(O)cc2)NC(=O)[C@H](CCC(=O)O)NC(=O)[C@H](Cc2c[nH]c3ncccc23)NC(=O)[C@H]([C@@H](C)O)NC(=O)[C@H](c2ccccc2)NC1=O` [Compound R3039, [mXylyl(2,10)]Ac-Nvl-C-Phg-T-azaTrp-E-Y-(N-Me)S-H-C-A-NH2] (Ac-[Nva]C[Phg]T[Trp(7-aza)]EY[NMeS]HCA-NH2; linker 2-10 via mXylylene), the IC50 under setting [1] came out at 0.24 µM.
In the case of `CCC[C@H](NC(=O)[C@@H](NC(=O)[C@@H]1CCCN1C(=O)[C@H](Cc1ccc(O)cc1)NC(=O)[C@H](CCC(=O)O)NC(=O)[C@H](Cc1c[nH]c2ccccc12)NC(=O)[C@H](Cc1ccc(O)cc1)NC(=O)[C@@H](NC(=O)[C@H](CC(N)=O)NC(=O)[C@H](CCC(=O)O)NC(=O)[C@H](Cc1ccc(O)cc1)NC(C)=O)C(C)(C)C)c1ccccc1)C(N)=O` [Compound R3041, Ac-Y-E-N-Tbg-Y-W-E-Y-P-Phg-Nvl-NH2], the IC50 under setting [1] turned out to be 0.0713 µM.
For `CCC[C@H](NC(=O)[C@@H]1CSSC[C@H](NC(=O)[C@H](CCC)NC(C)=O)C(=O)N[C@@H](c2ccccc2)C(=O)N[C@@H]([C@@H](C)O)C(=O)N[C@@H](Cc2c[nH]c3ncccc23)C(=O)N[C@@H](CCC(=O)O)C(=O)N[C@@H](Cc2ccc(O)cc2)C(=O)N(C)[C@@H](CO)C(=O)N[C@@H](Cc2c[nH]cn2)C(=O)N1)C(N)=O` [Compound R3042, [cyclo(2,10)]Ac-Nvl-C-Phg-T-azaTrp-E-Y-(N-Me)S-H-C-Nvl-NH2] (Ac-[Nva]C[Phg]T[Trp(7-aza)]EY[NMeS]HC[Nva]-NH2; disulfide 2-10), the IC50 under setting [1] was above 100 µM.
Regarding `CSCC[C@H](N)C(=O)N[C@H]1CSCc2cccc(c2)CSC[C@@H](C(=O)N[C@@H](CC(=O)O)C(=O)N[C@H](C(=O)N[C@@H](Cc2ccc(O)cc2)C(=O)N[C@@H](Cc2c[nH]c3ccccc23)C(N)=O)C(C)C)NC(=O)[C@H](Cc2ccccc2)NC(=O)[C@H](CCCNC(=N)N)NC(=O)[C@H](CCC(=O)O)NC(=O)[C@H](C(C)C)NC1=O` [Compound R3044, [mXylyl(2,7)]M-C-V-E-R-F-C-D-V-Y-W-NH2] (H-MCVERFCDVYW-NH2; linker 2-7 via mXylylene), the IC50 was above 50 µM under setting [2] and above 50 µM under setting [1].
Consider `CSCC[C@H](N)C(=O)N[C@H]1CSCc2cccc(c2)CSC[C@@H](C(=O)N[C@@H](CC(=O)O)C(=O)N[C@H](C(=O)N[C@@H](Cc2ccc(O)cc2)C(N)=O)C(C)C)NC(=O)[C@H](Cc2ccccc2)NC(=O)[C@H](CCCNC(=N)N)NC(=O)[C@H](CCC(=O)O)NC(=O)[C@H](C(C)C)NC1=O` [Compound R3045, [mXylyl(2,7)]M-C-V-E-R-F-C-D-V-Y-NH2] (H-MCVERFCDVY-NH2; linker 2-7 via mXylylene), for which the IC50 was above 100 µM under setting [2] and above 100 µM under setting [1].
For `CSCC[C@H](N)C(=O)N[C@H]1CSCc2cccc(c2)CSC[C@@H](C(=O)N[C@@H](CC(=O)O)C(=O)N[C@H](C(N)=O)C(C)C)NC(=O)[C@H](Cc2ccccc2)NC(=O)[C@H](CCCNC(=N)N)NC(=O)[C@H](CCC(=O)O)NC(=O)[C@H](C(C)C)NC1=O` [Compound R3046, [mXylyl(2,7)]M-C-V-E-R-F-C-D-V-NH2] (H-MCVERFCDV-NH2; linker 2-7 via mXylylene), the IC50 under setting [2] is above 100 µM and the half-inhibitory concentration (IC50) under setting [1] was above 100 µM.
Consider `CSCC[C@H](N)C(=O)N[C@H]1CSCc2cccc(c2)CSC[C@@H](C(N)=O)NC(=O)[C@H](Cc2ccccc2)NC(=O)[C@H](CCCNC(=N)N)NC(=O)[C@H](CCC(=O)O)NC(=O)[C@H](C(C)C)NC1=O` [Compound R3047, [mXylyl(2,7)]M-C-V-E-R-F-C-NH2] (H-MCVERFC-NH2; linker 2-7 via mXylylene), for which the IC50 under setting [2] is above 100 µM and the IC50 under setting [1] is above 100 µM.
